Source: patent US10105350B2, “Cosmetic preservatives as therapeutic corneoscleral tissue cross-linking agents” (THE TRUSTEES OF COLUMBIA UNIVERSITY IN THE CITY OF NEW YORK, priority 2014, dated 2018)
Where two headings read alike, the source gives them in different places.

What was measured:
[1] = cross-linking (gel formation) with polyallylamine (PAA) hydrogel model system; settings: with PAA at 37° C. and pH 7.4 phosphate buffered solution
Excerpt: Shown in Table 1 below are the results from a parallel study using a hydrogel functionalized amine cross-linking system (polyallylamine, or “PAA”) previously published for reactions using nitroalcohols (NAs). Li et al., “Mechanistic and catalytic studies of β-nitroalcohol crosslinking with polyamine,” J Appl Polym Sci. 2013; 128:3696-3701. The Table summarizes the results obtained in comparison studies using three of the higher order nitroalcohols previously reported (the nitrotriol HNPD, the nitrodiol MNPD, and the brominated nitrodiol known as Bronopol). The cross-linking efficacy of these nitroalcohol compounds were compared to two of the instantly disclosed formaldehyde releasing agents (diazolidinyl urea (DAU) and imidazolidinyl urea (IMU)). The time to gel formation indicates cross-linking efficacy in this system.

porcine scleral tissue = assay: scleral tissue cross-linking of cut porcine scleral pieces, shift in Tm by DSC
Procedure: Equatorial scleral strips approximately 6 mm×40 mm in size were obtained from multiple eyes. These strips were submerged in DPBS solution containing 1 mM EDTA to inactivate native collagenases and to prevent tissue dehydration during sample preparation. Each strip was further cut into smaller 4 mm×3 mm pieces. The scleral pieces were individually transferred to a 24 well plate and were incubated in 1 ml of cross-linking solution in 0.1M NaHCO3 buffer at either pH 8.5 or 7.4 for 30 mins at 25° C. without refreshing the solution. […] Negative controls were treated identically with vehicle. Post-treatment, all solutions were aspirated and samples were washed twice using DPBS to remove remnant cross-linking solution before being analyzed by DSC. A minimum of three independent determinations were carried out for each condition using scleral pieces originating from different porcine globes.
(§1) Thermal denaturation temperature (Tm) of all samples was measured using a Perkin-Elmer DSC 6000 Autosampler (Waltham, Mass.). Tissue samples were carefully blotted in a standardized, repetitive manner to remove excess solution/DPBS and transferred to pre-weighed 50 ul aluminum pans. The pans were immediately hermetically sealed using a DSC pan sealing press, which is used to prevent tissue dehydration due to evaporative losses. DSC scans were run using Pyris software (version 11.0) from 40° C. to 75° C. at a rate of 1° C./min and denaturation curves representing differential heat flow over time were recorded. DSC heat flow endotherm data was analyzed using the Pyris data analysis peak search function using a calculation limit of ±0.3° C. from the apparent thermal denaturation peak.
Conversely, scleral samples were subjected to non-paired t-tests assuming equal variance of data. […] All ΔTm values are reported in the form of mean value followed by standard error.

Salmonella = settings: Ames, micronucleus and other assays as per footnotes; cited from earlier work
rat = settings: cited from earlier work
[2] = from literature registry; cited from earlier work
[3] = tested on: intact cadaveric rabbit cornea; assay: ex vivo rabbit corneal cross-linking simulation setup, shift in thermal denaturation temperature (Tm) by DSC; settings: for cross-linking efficacy compared with nitroalcohol NP (250 mM, 60 minutes): FIG. 2, half of maximum allowed concentration (DAU 9 mM, SHMG 18.5 mM, DMDM 16 mM), 30 minutes; for ΔTm (shift in denaturation temperature of corneal tissue): Second Experimental Details, 30 mins, mean ± standard error
Procedure: 0.5% proparacaine was applied prior to the cross-linking solution. A cross-linking solution containing the formaldehyde releasing agent was then administered via a corneal reservoir for 30 minutes in 0.1M NaHCO3 at either pH 7.4 or 8.5. The epithelium was left intact. The control contralateral eye was treated identically with vehicle.
Effectiveness of cross-linking was based on shifts in thermal denaturation temperature (Tm) as measured by differential scanning calorimetry (DSC) (Perkin-Elmer DSC 6000).
Intact cadaveric rabbit heads with clear corneas were obtained fresh (within an hour of sacrifice) in adherence with the ARVO Statement For the Use of Animals in Ophthalmic and Vision Research. FAR solutions at concentrations equivalent to half the maximum allowed value (½ max) were administered in a manner designed to simulate therapeutic cross-linking in patients. For all of the corneal experiments (with the notable exception of CXL), the corneal epithelium was left intact. An 8 mm Hessburg-Barron corneal reservoir was affixed to the corneal surface using the supplied syringe vacuum. A single drop of proparacaine (0.5%) was applied to the corneal surface prior to reservoir application. A buffer solution containing 0.1M NaHCO3 at either pH 8.5 or 7.4 was used. The pH of the sample and buffer mixture was titrated to the desired pH just prior to application to the eye using an appropriately concentrated HCl solution. Treatments were conducted over a 30-minute period at 25° C. with refreshing of the solution every five minutes. The control contralateral eye was treated identically with vehicle. Immediately after treatment, a central 6 mm corneal button was trephined from the treated region of each eye, was blotted on both sides using a paper towel to remove excess solution, and was analyzed using differential scanning calorimetry (DSC) [see below]. A minimum of two independent determinations were carried out for each condition described using a fresh cadaver head each time.
as §1
Due to the nature of the ex vivo cadaveric system used for corneal cross-linking, where each cadaver provided the treated eye and contralateral control, corneal samples were subjected to paired t-tests. […] All ΔTm values are reported in the form of mean value followed by standard error.

[4] = tested on: human skin fibroblasts (HSFs); settings: past cell toxicity studies; cited from earlier work
[5] = quantitative determination of formaldehyde release by 13C-NMR; type: physicochemical; settings: pH 7.4 phosphate buffer, releaser 1.5 M; for Concentration of formaldehyde (M)a: free formaldehyde after 30 min at 37° C.; for Concentration of formaldehyde (M)b: free formaldehyde after 1 hour at 37° C.
Procedure: In the study corresponding with Table 2, NMR samples were prepared in NMR tubes as follows: X mg of formaldehyde-releaser, 500 ul of phosphate buffer (pH 7.4), and 500 ul of a solution of acetonitrile in D2O as internal standard (0.2M). […]. For each spectrum, the area of the formaldehyde signal at 82.5 ppm was compared with that of the acetonitrile signal at 1.3 ppm (internal standard).
• Concentration of formaldehyde-releasing agent (FAR), including nitroalcohols is 1.5 M. ^aConcentration of free formaldehyde (FA): after the sample was incubated in a water bath at 37° C. for 30 min. ^bConcentration of free formaldehyde (FA): after the sample was incubated in a water bath at 37° C. for 1 hour.

mouse = settings: in vivo; cited from earlier work
[6] = tested on: human skin fibroblasts (HSFs); settings: 24 hrs exposure, 48 hr recovery
Procedure: Healthy human skin fibroblasts (HSFs) from ATCC (Manassas, Va.) were cultured in dermal cell basal media (ATCC) using a serum-free fibroblast growth kit provided by the company (ascorbic acid, EGF/TGF-β1, glutamine, hydrocortisone, insulin and FB growth supplements). Cells were grown in 5% CO2 and 95% ambient air at 37° C. until confluent. Once confluent, the cells were detached and seeded into 24 well plates at a density of 5×10^4 cells/well and were once again allowed to reach confluence. Next, cells were treated with FAR solutions over a range of concentrations (0.001 mM-5 mM) for 24 hrs. Following cross-linking exposure, all cell media, including FAR solution, was aspirated and each well was rinsed once with DPBS. Fresh media was then reintroduced and the cells were allowed to recover for 48 hrs. Subsequent to cell recovery, cell toxicity was assessed using a modified version of the trypan blue staining protocol. To that end, all culture media was aspirated and each well was rinsed with DPBS. Next, 0.4% trypan blue solution (Gibco, Grand Island, N.Y., USA) was added to each well for 3 minutes at 25° C. The staining solution was then aspirated and cells were washed twice with DPBS. Finally, extent of trypan blue staining and morphology of cells was visualized using an inverted microscope (Fisher Scientific Cat#12-560-45).
Planar cell culture experiments using Human Skin Fibroblasts (HSFs) were conducted to determine the toxicity thresholds of the FARs. The toxicity threshold was taken to be the highest concentration in mM at which all cells were alive following a 24 hour exposure to the FAR and a 48 hour recovery period.

rabbit = settings: cited from earlier work
[7] = pH 8.5, concentrations as low as half max allowed
[8] = pH 7.4, half max allowed concentration, epithelium intact
[9] = pH 8.5, half max allowed concentration, epithelium intact

For `O=[N+]([O-])C(Br)(CO)CO` [BP, 2-bromo-2-nitro-1,3-propanediol, reference compound], the “Cross-linking time to gel formation” value [1] was 42 h, the “ΔTm of scleral tissue” value (porcine scleral tissue; 25 mM, pH 7.4, 30 mins) was roughly 0.5 °C and the “ΔTm of scleral tissue” value (porcine scleral tissue; 25 mM, pH 8.5, 30 mins) was roughly 0.5 °C. For the same compound, the Mutagenicity (Salmonella) was “Non- mutagenic§” and the “LD50 Oral rat” value (rat; oral) was 180 mg/kg.
In the case of `CC1(C)C(=O)N(CO)C(=O)N1CO` [DMDM, 1,3-dimethylol-5,5-dimethyl-hydantoin], the “ΔTm of scleral tissue” value (porcine scleral tissue; 25 mM, pH 7.4, 30 mins) is reported as 1.693±0.033 °C, the “scleral cross-linking effect (significance of ΔTm)” value (porcine scleral tissue; pH 7.4, concentrations as low as half max allowed) is reported as “statistically significant cross-linking effects” and the “scleral cross-linking effect (significance of ΔTm)” value (porcine scleral tissue; [7]) is reported as “statistically significant cross-linking effects”. The “Octanol Partition Coefficient (Log P)” value [2] was −1.078 ± 0.654, the Mutagenicity (Salmonella) was “Non- mutagenic‡” and the “cross-linking efficacy compared with nitroalcohol NP (250 mM, 60 minutes)” value [3] was “significantly more effective”. For the same compound, the “ΔTm (shift in denaturation temperature of corneal tissue)” value [3, 8] was 2.13±0.273 °C and the “ΔTm (shift in denaturation temperature of corneal tissue)” value [3, 9] was 2.04±0.225 °C.
In the case of `O=CC(O)CO` (stereo not shown) [Glyceraldehyde], the “toxic threshold for HSFs” value [4] is given as 1 mM.
In the case of `O=[N+]([O-])C(CO)(CO)CO` [HNPD, 2-hydroxymethyl-2-nitro-1,3-propanediol, reference compound], the “Cross-linking time to gel formation” value [1] is reported as 29 h, the “Concentration of formaldehyde (M)a” value [5] is reported as 0.041 M and the “Concentration of formaldehyde (M)b” value [5] is reported as 0.078 M. The “ΔTm of scleral tissue” value (porcine scleral tissue; 25 mM, pH 7.4, 30 mins) was “negative ΔTm”, the “ΔTm of scleral tissue” value (porcine scleral tissue; 25 mM, pH 8.5, 30 mins) was roughly 0.5 °C and the “Octanol Partition Coefficient (Log P)” value [2] was −0.115 ± 0.770. For the same compound, the Mutagenicity (Salmonella) was “Non- mutagenic∥”, the “LD50 Oral rat” value (rat; in vivo, po) was 1,917 mg/kg and the “LD50 Oral mouse” value (mouse) was 10,550 mg/kg.
For `O=C(NCNC(=O)NC1C(=O)NC(=O)N1CO)NC1C(=O)NC(=O)N1CO` (stereo not shown) [IMU, N,N′-methylenebis[N-[3-(hydroxymethyl)-2,5-dioxo-4-imidazolidinyl]]-urea], the “ΔTm of scleral tissue” value (porcine scleral tissue; 25 mM, pH 7.4, 30 mins) was 1.280±0.392 °C, the “ΔTm of scleral tissue” value (porcine scleral tissue; 25 mM, pH 8.5, 30 mins) was 2.543±0.280 °C and the “cell state (Alive/Dead)” value ([6]; 0.001 mM) was “Alive”. The “cell state (Alive/Dead)” value ([6]; 0.01 mM) was “Alive”, the “cell state (Alive/Dead)” value ([6]; 0.1 mM) was “Alive” and the “cell state (Alive/Dead)” value ([6]; 1 mM) was “Dead”. The “cell state (Alive/Dead)” value ([6]; 5 mM) was “Dead”, the “Octanol Partition Coefficient (Log P)” value [2] was −4.930 ± 0.959 and the “LD50 Oral rat” value (rat; oral) was “LD50 Oral- rat-11,300 mg/kg”. The “ΔTm (shift in denaturation temperature of corneal tissue)” value [3, 9] was −0.69±0.697 °C and the “negative shift in Tm of corneal tissue” value ([3]; pH 7.4, half max allowed concentration, epithelium intact, not significant) was roughly 0.5 °C.
In the case of `CCC12COCN1COC2` [OCT, 5-Ethyl-3,7-dioxa-1-azabicyclo [3.3.0] octane], the “ΔTm of scleral tissue” value (porcine scleral tissue; 25 mM, pH 7.4, 30 mins) is listed as roughly 0.5 °C, the “ΔTm of scleral tissue” value (porcine scleral tissue; 25 mM, pH 8.5, 30 mins) is listed as roughly 0.5 °C and the “LD50 Oral rat” value (rat; oral) is listed as > 3,600 mg/kg. The “LD50 Dermal rabbit” value (rabbit; dermal) was 1,948 mg/kg and the “ΔTm (shift in denaturation temperature of corneal tissue)” value [3, 9] was 1.10±0.246 °C.
In the case of `O=C([O-])CNCO.[Na+]` [SMG, sodium hydroxymethylglycinate], the “ΔTm of scleral tissue” value (porcine scleral tissue; 25 mM, pH 7.4, 30 mins) is reported as 1.697±0.311 °C, the “ΔTm of scleral tissue” value (porcine scleral tissue; 25 mM, pH 8.5, 30 mins) is reported as 5.463±0.419 °C and the “ΔTm of scleral tissue” value (porcine scleral tissue; pH 7.4, 39.06 mM (max allowed), 30 mins) is reported as 0.007±0.222 °C. For the same compound, the “ΔTm of scleral tissue” value (porcine scleral tissue; pH 8.5, 39.06 mM (max allowed), 30 mins) was 9.073±0.450 °C, the “scleral cross-linking effect (significance of ΔTm)” value (porcine scleral tissue; [7]) was “statistically significant cross-linking effects” and the “cell state (Alive/Dead)” value ([6]; 0.001 mM) was “Alive”. The “cell state (Alive/Dead)” value ([6]; 0.01 mM) was “Alive”, the “cell state (Alive/Dead)” value ([6]; 0.1 mM) was “Alive” and the “cell state (Alive/Dead)” value ([6]; 1 mM) was “Dead”. The “cell state (Alive/Dead)” value ([6]; 5 mM) was “Dead”, the “Octanol Partition Coefficient (Log P)” value [2] was −1.197 and the Mutagenicity (Salmonella) was “Non- mutagenic†”. The “LD50 Oral rat” value (rat; in vivo, po) was “LD50 Oral- rat-2,100 mg/kg, LD50 Dermal-”, the “LD50 Dermal rabbit” value (rabbit; in vivo, topical or ocular) was “rabbit->2,000 mg/kg” and the “cross-linking efficacy compared with nitroalcohol NP (250 mM, 60 minutes)” value [3] was “significantly more effective”. For the same compound, the “ΔTm (shift in denaturation temperature of corneal tissue)” value [3, 8] was 2.281±0.697 °C and the “ΔTm (shift in denaturation temperature of corneal tissue)” value [3, 9] was 3.573±0.578 °C.
For `COC(=O)C1=CO[C@@H](O)[C@@H]2C(CO)=CC[C@H]12` [genipin], the “toxic threshold for HSFs” value [4] is given as “on par with bronopol”.
For `O=CCCCC=O` [glutaraldehyde], the “toxic threshold for HSFs” value [4] is listed as “on par with bronopol”.
In the case of `CC(CO)(CO)[N+](=O)[O-]` [nitro-diol, 2-methyl-2-nitro-1,3-propanediol], the “Cross-linking time to gel formation” value [1] is reported as 66 h, the “Concentration of formaldehyde (M)a” value [5] is reported as 0.011 M and the “Concentration of formaldehyde (M)b” value [5] is reported as 0.044 M.
For `CC(CO)[N+](=O)[O-]` (stereo not shown) [nitro-monol, 2-nitro-1-propanol], the “Concentration of formaldehyde (M)a” value [5] was 0.018 M and the “Concentration of formaldehyde (M)b” value [5] was 0.014 M.
With “N,N′-methylenebis[N-[3-(hydroxymethyl)-2,5-dioxo-4-imidazolidinyl]]-urea [IMU]” the “Cross-linking time to gel formation” value [1] was 4 h.
